Results reported in publication PMC5872703, “The Postprandial Anti-Hyperglycemic Effect of Pyridoxine and Its Derivatives Using In Vitro and In Vivo Animal Models” (Nutrients, 2018).
“And” between values parts separate entries of the source, which are not always exact repeats. Identical values can stand only once. Marks after values point to notes of the source that are not given here.

What was measured:
[1] = molecular target: rat intestinal α-glucosidase; assay: Rat intestinal α-glucosidase inhibition assay (pNPG); format: biochemical; conditions: for IC50 Rat intestinal α-Glucosidase: mean ± S.D.
Experimental: The rat intestinal α-glucosidase assay was administered as per the method of Kwon et al. with slight modification. A total of 1 g of rat-intestinal acetone powder was suspended in 3 mL of 0.1 M sodium phosphate buffer (pH 6.9), and the suspension was sonicated 12 times for 30 s at 4 °C. After centrifugation (10,000× g, 30 min, 4 °C), the resulting supernatant was used for the assay. Sample solution (50 μL) and 0.1 phosphate buffer (pH 6.9, 100 μL) containing α-glucosidase (Sigma-Aldrich, St. Luis, MO, USA) solution (1.0 U/mL) was incubated at 37 °C for 10 min. After pre-incubation, 5 mM p-nitrophenyl-α-D-glucopyranoside solution (50 μL) in 0.1 M phosphate buffer (pH 6.9) was added to each well at timed intervals. The reaction mixtures were incubated at 37 °C for 30 min. Before and after incubation, absorbance was read at 405 nm and compared to a control, which had 50 μL of buffer solution in place of the extract by micro-plate reader (SUNRISE; Tecan Trading AG, Salzburg, Austria). The α-glucosidase inhibitory activity was expressed as inhibition % and was calculated as follows: Inhibition(%)=(ΔA 405 (Control)−ΔA 405(Extract)/ΔA 405 (Control))×100

[2] = molecular target: T1, porcine pancreatic α-amylase (Sus scrofa, UniProt P00690); assay: Porcine pancreatic α-amylase inhibition assay; format: biochemical; conditions: for IC50: mean ± S.D.
T1 sequence (P00690 16-511): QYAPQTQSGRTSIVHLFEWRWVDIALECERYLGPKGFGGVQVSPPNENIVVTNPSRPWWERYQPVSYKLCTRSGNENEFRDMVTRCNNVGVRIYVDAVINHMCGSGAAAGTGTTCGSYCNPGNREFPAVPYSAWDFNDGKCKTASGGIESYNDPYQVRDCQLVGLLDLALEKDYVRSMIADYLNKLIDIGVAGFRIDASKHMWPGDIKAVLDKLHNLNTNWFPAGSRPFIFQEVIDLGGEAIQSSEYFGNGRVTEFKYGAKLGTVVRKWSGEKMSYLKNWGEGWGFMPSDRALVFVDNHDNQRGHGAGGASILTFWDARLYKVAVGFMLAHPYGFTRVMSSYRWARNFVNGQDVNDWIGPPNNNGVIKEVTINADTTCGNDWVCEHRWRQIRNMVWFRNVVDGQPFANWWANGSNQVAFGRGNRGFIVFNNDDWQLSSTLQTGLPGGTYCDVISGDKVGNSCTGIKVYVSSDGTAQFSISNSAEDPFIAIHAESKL
Experimental: The porcine pancreatic α-amlyase inhibition assay was administered as per the method of Kwon et al. Sample solution (200 μL) and 0.02 M sodium phosphate buffer (pH 6.9 with 0.006 M sodium chloride, 500 μL) containing α-amylase solution (0.5 mg/mL, 5.0 MU/mL) were incubated at 25 °C for 10 min. After preincubation, 500 μL of a 1% starch solution in 0.02 M sodium phosphate buffer was added. The reaction mixture was then incubated at 25 °C for 10 min. The reaction was stopped with 1.0 mL of dinitrosalicylic acid (DNS). The reaction mixture was then incubated in a boiling water bath for 5 min and cooled to room temperature. The reaction mixture at 540 nm with ELISA microplate reader (SUNRISE; Tecan Trading AG, Saltzburg, Austria).

[3] = molecular target: T2, Rat Intestinal SUCRASE (Rattus norvegicus, UniProt P23739); assay: Sucrase inhibition assay (rat intestinal acetone powder); format: biochemical; conditions: mean ± S.D.
T2 construct: The crude enzyme solution prepared from rat intestinal acetone powder; tissue Sigma-Aldrich Co; host or cells: rat intestine (acetone powder)
Experimental: (§1) The crude enzyme solution prepared from rat intestinal acetone powder Sigma-Aldrich Co. (St. Louise, MO, USA) was used as the small intestinal maltase, sucrose, and glucoamylase, showing specific activities of 0.70, 0.34, and 0.45 units/mL, respectively. Rat intestinal acetone powder (1.0 g) was suspended in 3 mL of 0.1 M sodium phosphate buffer, and the suspension was sonicated 12 times for 30 s at 4 °C. After centrifugation (10,000 × g, 30 min, 4 °C), the resulting supernatant was used for the assay. Maltase, sucrose, and glucoamylase inhibitory activity were assay by modifying a method developed by Dahlqvist. The inhibitory activity was determined by incubating a solution of an enzyme (50 μL), 0.1 M phosphate buffer (pH 7.0, 100 μL) containing 0.4 mg/mL sucrose or maltose or 1% soluble starch, and a solution (50 μL) with various concentrations of sample solution (between 0.05 and 1.0 mM) at 37 °C for 30 min. The reaction mixture was heated in a boiling water bath to stop the reaction for 10 min, and the amount of liberated glucose was then measured by the glucose oxidase. The inhibitory activity was calculated from the formula as follows. Inhibition (%) = (C − T)/C × 100, where C is the enzyme activity without inhibitor, and T is the enzyme activity with inhibitor.

[4] = molecular target: Rat Intestinal Maltase; assay: Maltase inhibition assay (rat intestinal acetone powder); format: biochemical; conditions: for IC50 Rat Intestinal Maltase: mean ± S.D.
Experimental: as §1

[5] = tested on: Sprague-Dawley (SD) rats; assay: Starch loading test, postprandial blood glucose; format: in vivo, rat; conditions: for BGL AUCt / blood glucose level / increase in blood glucose level: SD rats; for BGL AUCt: starch 2.0 g/kg; for blood glucose level / increase in blood glucose level: starch 2.0 g/kg oral, 30 min after administration
Experimental: (§2) All animal procedures were approved by Institutional Animal Care and Use Committee (IACUC) of the Hannam University (Approval number: HNU2017-003). Four-week-old male SD rats were purchased from Raon Bio Co. (Gyeonggi-do, Korea) and fed a solid diet (Raon Bio Co., Gyeonggi-do, Korea) for one week. The rats were housed in a ventilated room at 23 ± 2 °C with 50 ± 5% relative humidity, and under an alternating 12 h light/dark cycle. […] The blood samples were then taken from the tail after administration and blood glucose levels were measured at 0, 0.5, 1, 2, and 3 h.

[6] = tested on: Sprague-Dawley (SD) rats; assay: Sucrose loading test, postprandial blood glucose; format: in vivo, rat; conditions: for BGL AUCt / blood glucose level / change (increase) of blood glucose level: SD rats; for BGL AUCt: sucrose 2.0 g/kg; for blood glucose level / change (increase) of blood glucose level: sucrose 2.0 g/kg oral, 30 min after administration
Experimental: as §2

[7] = molecular target: Rat Intestinal Glucoamylase (Rattus norvegicus, UniProt D3ZTX4); assay: Glucoamylase inhibition assay (rat intestinal acetone powder); format: biochemical; conditions: read-out: glucoamylase inhibition
Sequence of Rat Intestinal Glucoamylase (D3ZTX4 1-4511): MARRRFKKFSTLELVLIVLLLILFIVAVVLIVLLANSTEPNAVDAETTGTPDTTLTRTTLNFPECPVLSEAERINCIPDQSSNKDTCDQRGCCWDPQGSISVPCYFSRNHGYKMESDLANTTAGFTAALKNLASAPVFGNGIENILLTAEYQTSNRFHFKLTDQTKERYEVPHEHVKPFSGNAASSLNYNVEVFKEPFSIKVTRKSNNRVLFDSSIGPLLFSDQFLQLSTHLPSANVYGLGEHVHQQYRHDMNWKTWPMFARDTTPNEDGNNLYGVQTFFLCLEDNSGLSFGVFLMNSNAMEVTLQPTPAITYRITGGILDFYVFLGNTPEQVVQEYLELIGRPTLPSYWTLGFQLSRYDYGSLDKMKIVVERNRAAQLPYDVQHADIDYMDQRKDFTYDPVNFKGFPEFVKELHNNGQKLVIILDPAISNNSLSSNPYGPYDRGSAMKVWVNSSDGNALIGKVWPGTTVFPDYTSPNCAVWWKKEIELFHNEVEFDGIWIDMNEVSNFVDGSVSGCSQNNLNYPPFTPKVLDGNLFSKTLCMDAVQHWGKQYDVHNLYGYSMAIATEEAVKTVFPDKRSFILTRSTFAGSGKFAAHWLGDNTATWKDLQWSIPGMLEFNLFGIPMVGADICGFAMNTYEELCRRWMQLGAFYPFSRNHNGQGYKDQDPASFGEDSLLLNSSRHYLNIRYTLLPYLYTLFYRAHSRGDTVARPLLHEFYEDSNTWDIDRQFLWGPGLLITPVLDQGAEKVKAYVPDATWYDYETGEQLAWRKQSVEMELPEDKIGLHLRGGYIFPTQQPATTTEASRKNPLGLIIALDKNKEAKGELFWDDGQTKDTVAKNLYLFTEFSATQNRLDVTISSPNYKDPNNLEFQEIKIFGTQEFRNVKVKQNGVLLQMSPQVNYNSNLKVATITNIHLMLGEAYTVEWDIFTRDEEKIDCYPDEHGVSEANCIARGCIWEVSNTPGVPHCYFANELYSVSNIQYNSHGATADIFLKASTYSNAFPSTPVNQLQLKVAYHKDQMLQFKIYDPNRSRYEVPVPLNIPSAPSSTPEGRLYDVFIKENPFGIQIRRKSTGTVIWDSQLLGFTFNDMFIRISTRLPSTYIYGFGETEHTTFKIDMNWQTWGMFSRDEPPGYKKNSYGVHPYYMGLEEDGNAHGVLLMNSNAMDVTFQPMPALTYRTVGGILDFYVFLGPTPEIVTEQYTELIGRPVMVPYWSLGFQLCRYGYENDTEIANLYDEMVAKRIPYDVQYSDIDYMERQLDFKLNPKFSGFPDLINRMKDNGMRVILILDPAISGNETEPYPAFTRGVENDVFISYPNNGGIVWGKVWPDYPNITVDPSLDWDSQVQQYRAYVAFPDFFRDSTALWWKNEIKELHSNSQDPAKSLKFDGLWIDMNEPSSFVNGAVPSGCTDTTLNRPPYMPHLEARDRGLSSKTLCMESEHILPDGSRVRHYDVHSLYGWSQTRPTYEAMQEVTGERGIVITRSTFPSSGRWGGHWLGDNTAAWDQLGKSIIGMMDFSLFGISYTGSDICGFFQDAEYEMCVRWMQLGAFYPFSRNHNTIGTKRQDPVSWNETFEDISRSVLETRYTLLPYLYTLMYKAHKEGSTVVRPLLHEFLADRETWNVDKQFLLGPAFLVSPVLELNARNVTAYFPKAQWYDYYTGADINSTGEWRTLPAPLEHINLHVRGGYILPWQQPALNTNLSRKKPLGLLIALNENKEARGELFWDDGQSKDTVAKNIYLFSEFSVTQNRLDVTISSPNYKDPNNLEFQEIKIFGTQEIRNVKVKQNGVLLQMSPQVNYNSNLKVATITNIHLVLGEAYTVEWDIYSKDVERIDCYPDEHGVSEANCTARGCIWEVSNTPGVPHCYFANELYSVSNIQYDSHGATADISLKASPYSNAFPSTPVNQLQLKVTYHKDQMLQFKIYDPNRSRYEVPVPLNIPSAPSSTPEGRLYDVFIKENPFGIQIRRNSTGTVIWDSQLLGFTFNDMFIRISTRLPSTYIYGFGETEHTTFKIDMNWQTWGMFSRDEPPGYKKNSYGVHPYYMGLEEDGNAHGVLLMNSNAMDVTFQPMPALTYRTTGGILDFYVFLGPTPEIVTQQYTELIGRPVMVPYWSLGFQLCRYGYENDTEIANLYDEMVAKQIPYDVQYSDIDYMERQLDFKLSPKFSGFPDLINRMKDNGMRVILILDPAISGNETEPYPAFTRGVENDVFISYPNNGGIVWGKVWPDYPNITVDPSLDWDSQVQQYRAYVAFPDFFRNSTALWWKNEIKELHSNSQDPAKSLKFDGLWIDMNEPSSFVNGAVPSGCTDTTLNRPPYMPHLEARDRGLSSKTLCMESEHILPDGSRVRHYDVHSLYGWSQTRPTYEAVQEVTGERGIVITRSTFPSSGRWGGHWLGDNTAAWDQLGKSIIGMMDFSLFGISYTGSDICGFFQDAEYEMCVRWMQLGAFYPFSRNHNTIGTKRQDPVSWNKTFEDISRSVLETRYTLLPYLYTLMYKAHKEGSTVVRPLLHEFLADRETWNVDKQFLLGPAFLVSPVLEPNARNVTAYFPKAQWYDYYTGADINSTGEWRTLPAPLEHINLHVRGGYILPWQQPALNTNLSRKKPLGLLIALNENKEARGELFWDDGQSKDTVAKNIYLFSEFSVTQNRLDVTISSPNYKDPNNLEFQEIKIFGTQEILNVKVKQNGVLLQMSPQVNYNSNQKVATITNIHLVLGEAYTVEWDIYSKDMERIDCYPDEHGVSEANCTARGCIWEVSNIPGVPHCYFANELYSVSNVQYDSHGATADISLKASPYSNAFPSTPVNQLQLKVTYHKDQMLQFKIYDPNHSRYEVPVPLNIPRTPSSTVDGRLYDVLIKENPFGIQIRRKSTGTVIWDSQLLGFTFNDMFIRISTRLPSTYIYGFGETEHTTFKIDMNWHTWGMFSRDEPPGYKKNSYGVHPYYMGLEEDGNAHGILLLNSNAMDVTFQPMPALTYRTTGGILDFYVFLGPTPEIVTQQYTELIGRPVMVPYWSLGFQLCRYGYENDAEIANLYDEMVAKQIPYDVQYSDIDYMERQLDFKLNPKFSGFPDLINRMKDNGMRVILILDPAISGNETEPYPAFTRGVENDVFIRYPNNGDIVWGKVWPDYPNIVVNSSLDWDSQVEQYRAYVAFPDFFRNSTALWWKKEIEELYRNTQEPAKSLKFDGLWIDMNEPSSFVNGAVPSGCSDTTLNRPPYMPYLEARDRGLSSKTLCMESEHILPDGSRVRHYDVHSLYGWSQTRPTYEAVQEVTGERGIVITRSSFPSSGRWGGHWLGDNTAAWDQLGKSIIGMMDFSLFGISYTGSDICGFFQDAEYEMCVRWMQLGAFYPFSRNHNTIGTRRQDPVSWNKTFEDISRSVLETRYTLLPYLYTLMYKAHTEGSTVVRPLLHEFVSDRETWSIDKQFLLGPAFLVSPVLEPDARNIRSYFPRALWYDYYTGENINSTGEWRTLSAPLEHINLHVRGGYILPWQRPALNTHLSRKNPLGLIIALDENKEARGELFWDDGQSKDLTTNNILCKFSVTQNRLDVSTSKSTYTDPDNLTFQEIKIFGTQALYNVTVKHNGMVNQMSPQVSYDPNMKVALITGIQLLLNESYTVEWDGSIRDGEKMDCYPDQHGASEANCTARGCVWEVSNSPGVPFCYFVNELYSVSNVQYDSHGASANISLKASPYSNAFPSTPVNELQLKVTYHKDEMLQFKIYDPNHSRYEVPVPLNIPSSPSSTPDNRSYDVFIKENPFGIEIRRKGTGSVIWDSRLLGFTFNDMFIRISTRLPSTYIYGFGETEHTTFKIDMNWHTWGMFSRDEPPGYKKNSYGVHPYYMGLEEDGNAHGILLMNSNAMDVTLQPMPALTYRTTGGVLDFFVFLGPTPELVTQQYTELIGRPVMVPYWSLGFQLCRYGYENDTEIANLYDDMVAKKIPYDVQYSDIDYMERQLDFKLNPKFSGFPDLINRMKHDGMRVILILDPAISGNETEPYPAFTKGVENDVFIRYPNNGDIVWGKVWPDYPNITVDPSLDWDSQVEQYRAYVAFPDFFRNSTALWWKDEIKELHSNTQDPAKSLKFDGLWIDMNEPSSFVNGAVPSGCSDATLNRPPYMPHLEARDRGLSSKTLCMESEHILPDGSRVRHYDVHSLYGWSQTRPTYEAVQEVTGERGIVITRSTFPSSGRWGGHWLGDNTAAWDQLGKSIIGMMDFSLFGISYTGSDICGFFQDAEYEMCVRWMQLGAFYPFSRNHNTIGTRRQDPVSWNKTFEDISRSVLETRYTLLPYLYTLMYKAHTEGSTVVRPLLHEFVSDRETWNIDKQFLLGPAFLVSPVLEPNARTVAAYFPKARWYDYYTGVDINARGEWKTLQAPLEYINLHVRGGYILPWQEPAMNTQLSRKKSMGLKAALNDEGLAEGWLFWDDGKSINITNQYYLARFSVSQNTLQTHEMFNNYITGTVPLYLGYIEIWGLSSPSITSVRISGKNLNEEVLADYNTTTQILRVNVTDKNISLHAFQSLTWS
Experimental: as §1

[8] = two highest tested doses 5 and 7 mg/mL
[9] = starch loading, 30 min, vs pyridoxine-treated group
[10] = starch loading, 30 min, vs starch (control) group
[11] = sucrose loading, 30 min, vs pyridoxine-treated group

| Compound | IC50 Rat intestinal α-Glucosidase [1] | IC50 [2] [mM] | pancreatic α-amylase inhibitory effect [2, 8] | IC50 [3] [mM] | IC50 Rat Intestinal Maltase [4] | BGL AUCt ([5]; sample 0.1 g/kg oral) | BGL AUCt ([6]; sample 0.1 g/kg oral) | blood glucose level [5] [mg/dL] | increase in blood glucose level [5] [mg/dL] | blood glucose level [6] [mg/dL] | change (increase) of blood glucose level [6] [mg/dL] | further results |
| --- | --- | --- | --- | --- | --- | --- | --- | --- | --- | --- | --- | --- |
| Cc1ncc(CO)c(CN)c1O [Pyridoxamine] | 4.85 ± 0.06 ^a mg/mL | 88.8 | showed α-amylase inhibitory effects | 2.08 | 1.08 ± 0.10 ^a mg/mL | 275.10 ± 7.31 ^b h∙mg/dL | 269.14 ± 13.40 ^b h∙mg/dL | – | – | – | – | – |
| Cc1ncc(CO)c(C=O)c1O [Pyridoxal] | 4.14 mg/mL and 4.15 ± 0.17 ^b mg/mL | 77.3 ± 7.3 | showed α-amylase inhibitory effects | 1.91 ± 0.179 | 0.38 mg/mL and 0.37 ± 0.13 ^b mg/mL | 268.27 ± 8.80 ^b h∙mg/dL | 272.99 ± 5.96 ^b h∙mg/dL | 175.36 ± 10.84 | 79.78 ± 10.84 | 164.74 ± 12.06 | 64.88 ± 12.06 | α-glucosidase inhibition ([1]; highest tested dose 7 mg/mL): 79.83%; maltase inhibitory activity ([4]; 0.5 mg/mL): 48.39%; maltase inhibitory activity ([4]; 1 mg/mL): 70.10%; maltase inhibitory activity ([4]; 2 mg/mL): 83.29%; inhibition at 200 µg/mL [7]: 42.8%; inhibition at 500 µg/mL [7]: 66.1%; inhibition at 1000 µg/mL [7]: 78.6%; decrease of maximum blood glucose level (Cmax) compared to control ([5]; starch loading test, p < 0.05): ~19%; increase in blood glucose level, less than that of pyridoxine-treated group [5, 9]: 27.91 mg/dL; suppression of blood glucose level compared to pyridoxine-treated group [5, 9]: 26.41 mg/dL; increase in blood glucose level, less than that of starch group [5, 10]: 44.45 mg/dL; suppression of blood glucose level compared to starch group [5, 10]: 41.56 mg/dL; blood glucose reduction compared to control ([6]; at 30 min, loading test not given): around 18%; decrease of maximum blood glucose level (Cmax) compared to control ([6]; sucrose loading test, p < 0.05): about 18%; blood glucose level, less than that of pyridoxine-treated group [6, 11]: 27.76 mg/dL; change of blood glucose level, lower than pyridoxine-treated group [6, 11]: 27.98 mg/dL; blood glucose level, less than that of sucrose-treated group ([6]; sucrose loading, 30 min, vs sucrose (control) group): 35.89 mg/dL |
| Cc1ncc(CO)c(CO)c1O [Pyridoxine] | 5.02 ± 0.05 ^a mg/mL | 137 | – | 1.89 | 0.87 ± 0.08 ^a mg/mL | 274.28 ± 15.62 ^b h∙mg/dL | 290.64 ± 15.55 ^c h∙mg/dL | 201.78 ± 18.99 | 107.69 ± 18.99 | 192.50 ± 10.10 | 92.86 ± 10.10 | pancreatic α-amylase inhibitory effect ([2]; highest tested dose 7 mg/mL): no inhibitory effects |
| C[C@H]1O[C@H](O[C@H]2[C@H](O)[C@@H](O)[C@@H](O[C@H]3[C@H](O)[C@@H](O)C(O)O[C@@H]3CO)O[C@@H]2CO)[C@H](O)[C@@H](O)[C@@H]1N[C@H]1C=C(CO)[C@@H](O)[C@H](O)[C@H]1O (stereo partly drawn) [Acarbose, reference compound] | – | – | – | – | – | – | – | – | – | – | – | BGL AUCt ([5]; Acarbose 0.005 g/kg oral): 228.88 ± 13.09 ^a h∙mg/dL; BGL AUCt ([6]; Acarbose 0.005 g/kg oral): 237.94 ± 8.82 ^a h∙mg/dL |
